Literature values, collected in US10660869B2, “Lactate powder and method for the preparation thereof” (Purac Biochem B.V., priority 2012, dated 2020).

Details: 1000 mg of sample dissolved in 240 ml water

CC(O)C(=O)[O-].CC(O)C(=O)[O-].O.O.O.O.O.[Ca+2] (stereo not shown) [PURACAL® PP/FCC, calcium lactate pentahydrate]
typical dissolution time: 25 s
